Experimental data from US10016354B2, “Compositions containing polymeric, ionic compounds comprising imidazolium groups” (BASF SE, priority 2011, dated 2018).
In brackets after ≈: the same amount, converted by molar mass.

Legend:
[1] = tested on: Staphylococcus aureus ATCC 29213; assay: Minimum Inhibitory Concentration (MIC) test; assay type: cell-based; conditions: Table 3, known antibiotics as control; 24 h at 37° C.
[2] = tested on: Pseudomonas aeruginosa ATCC 27853; assay: Minimum Inhibitory Concentration (MIC) test; assay type: cell-based; conditions: Table 3, known antibiotics as control; 24 h at 37° C.

## CC1=C(C(=O)O)N2C(=O)[C@@H](NC(=O)[C@H](N)c3ccccc3)[C@H]2SC1 [Cephalexine]
[1]
  MIC Staphylococcus aureus ATCC 29213 = DSM 2569: 4 µg/mL (≈ 0.0115 mM)
[2]
  MIC Pseudomonas aeruginosa ATCC 27853 = DSM 1117: >4096 µg/mL
